Laboratory results from article PMC5679629, “Flavin-containing monooxygenase 3 (FMO3) role in busulphan metabolic pathway” (PLoS ONE, 2017).

Tests used:
[1] = Busulphan and THT plasma kinetics in a patient treated concomitantly with voriconazole; type: in vivo, human; settings: Bu 2mg/kg b.i.d. with concomitant voriconazole
Description: In order to confirm the contribution of FMO3 to human Bu kinetics, blood samples were collected (routinely) from a patient who underwent stem cell transplantation and was conditioned according to the hospital transplantation protocol i.e. high dose of Bu (2mg/kg b.i.d.) for four days followed with two days of cyclophosphamide (60mg/kg). […] Voriconazole was administered, according to the hospital clinical protocol, for the treatment of an acute fungal infection.
Samples were taken for therapeutic drug monitoring (TDM) at several time points after the first, third and fifth doses. Blood was collected into EDTA vacutainer tubes, plasma was separated by centrifugation at 1200 g and stored at -20°C until analysis of Bu and THT [18].

[2] = test system: pooled human liver microsomes (HLM); test: THT disappearance on incubation with pooled human liver microsomes, with heat-inactivation of FMO3 or carbon monoxide inactivation of CYPs; type: in vitro ADME
Description: THT (Sigma-Aldrich, Stockholm, Sweden) was received as a liquid solution and stock solutions were prepared daily and diluted in 50mM potassium phosphate buffer pH 7.4.
Linearity of the reactions with time, enzyme and THT concentrations was determined before measuring apparent enzyme kinetic constants; pooled human liver microsomes (HLM) (Cypex, Dundee, UK) were incubated at different enzyme concentrations with a range of THT concentrations (10–500μM).
Time curves were performed by incubating microsomes in 50mM potassium phosphate buffer (pH 7.4) in a total volume of 200μL. The reaction was started by the addition of NADPH (Sigma-Aldrich, St. Louis, USA) to a final concentration of 1mM and terminated by adding one volume of ice cold dicholormethane (Fluka, Seeze, Germany).
The relative contribution of CYPs and FMO3 in the metabolism of THT was studied by heat-inactivation of FMO3 in some incubations and, in other incubations, CYP enzymes in HLM were inactivated by carbon monoxide (AGA Gas, Enköping, Sweden) bubbling.
(§1) Incubations were performed in triplicate and negative controls (excluding NADPH, microsomes, THT or by terminating the incubations before the addition of NADPH) were run in parallel.
To measure THT and the secondary metabolite, sulfolane, the reactions were terminated by adding dichloromethane. Samples (180μL) were added to 10μM nicotine (20μL, Merck, Hoherbrunn, Germany), used as an internal standard, before extraction. The matrix was extracted by liquid-liquid extraction with dichloromethane (equal volumes, 200μL) after 30 sec of high speed vortexing. After extraction and centrifugation at 16000 g for 10 min, the organic phase was transferred into GC-MS tubes. […] Samples (180μL) were added to 10 μM of 3-methylsulfolane (20μL, TCI, Tokyo, Japan), used as an internal standard. […]
(§2) Concentrations of THT and its metabolites were measured using GC-MS [18] after validation for use with microsomal incubations according to the international guidelines.

[3] = THT kinetics in mice (alone or after PTU pretreatment); type: in vivo, Male C57BL/6N mice; settings: THT-treated mice (8.8mg/kg i.p.) pretreated with PTU 3mg/kg i.p. for 3 days
Description: Standard laboratory chow and water ad libitum was introduced.
THT was also prepared as a 2mM solution in DMSO and the dose given was equimolar to the Bu treatment (i.e. 100μmol/kg or 8.8 mg/kg). […] At the appropriate time points (10min, 30min, 1h, 2h, 4h, 6h and 8h), mice (three mice at each time point) were anesthetized using 2% isoflurane and the blood samples were collected by heart puncture. Mice were euthanized by cervical dislocation. Plasma was separated and stored at -20°C.
A similar experiment was performed in a second group of mice, after 3 days of i.p. injections with the FMO3-inhibitor, Phenylthiourea (PTU, Sigma-Aldrich, Stockholm, Sweden, S1 Fig). PTU (3mg/kg) was dissolved in DMSO and diluted with physiological NaCl solution and then injected into the mice once daily followed by Bu or THT injections on the 4th day.
Briefly, 500 μL of plasma were diluted with 500 μL of water. Fifty microliters of the internal standard (1,5-bis(methanesulfonoxy)pentane; 38.5 μM) were added, followed by the addition of 1 mL of sodium iodide (8M, Merck, Darmstadt, Germany) and 400μL of n-heptane (Merck, Darmstadt, Germany). […] The organic phase was analyzed by GC-MS [18]. THT was quantified as described previously and the method was validated for use with mouse plasma before measuring both Bu and THT [19, 20].

[4] = Busulphan kinetics in mice (alone, after PTU pretreatment, or with high-dose THT); settings: mice injected with Bu and PTU
Description: Male C57BL/6N mice (6–8 weeks old) were purchased from Charles River (Cologne, Germany). The mice were allowed to acclimatize to the surroundings for 2 weeks with a 12h dark/12h light cycle and randomized for treatment. Standard laboratory chow and water ad libitum was introduced.
To study Bu and THT kinetics, Bu (Sigma-Aldrich, Steinheim, Germany) was administered i.p. (25mg/kg or 100μmol/kg) as a 2mM solution in DMSO (Sigma-Aldrich, Stockholm, Sweden) [21]. THT was also prepared as a 2mM solution in DMSO and the dose given was equimolar to the Bu treatment (i.e. 100μmol/kg or 8.8 mg/kg). Upon injection, samples were diluted with physiological NaCl solution to a final DMSO concentration of 10% in the dosing solution. At the appropriate time points (10min, 30min, 1h, 2h, 4h, 6h and 8h), mice (three mice at each time point) were anesthetized using 2% isoflurane and the blood samples were collected by heart puncture. Mice were euthanized by cervical dislocation. Plasma was separated and stored at -20°C.
PTU (3mg/kg) was dissolved in DMSO and diluted with physiological NaCl solution and then injected into the mice once daily followed by Bu or THT injections on the 4th day. The mice were euthanized and plasma samples prepared as in the previous experiment.
To detect the effect of high THT concentrations on Bu metabolism, a third group of mice was injected with both Bu (100μmol/kg) and a high dose of THT (17.6mg/kg or 200μmol/kg) and samples prepared as described previously. All experiments including negative controls (mice injected with 10% DMSO in NaCl solution) and mice injected with PTU alone were performed in triplicates.
To quantify Bu, samples were extracted according to the method reported previously by Hassan et al. [24]. Briefly, 500 μL of plasma were diluted with 500 μL of water. Fifty microliters of the internal standard (1,5-bis(methanesulfonoxy)pentane; 38.5 μM) were added, followed by the addition of 1 mL of sodium iodide (8M, Merck, Darmstadt, Germany) and 400μL of n-heptane (Merck, Darmstadt, Germany). The tubes were placed under magnetic stirring in a water bath (70°C) for 45 min. During the reaction, busulphan and 1,5-bis(methanesulfonoxy)pentane were converted to 1,4-diiodobutane and 1,5-diiodopentane respectively and subsequently extracted with n-heptane [25]. The conversion of busulphan and 1,5-bis(methanesulfonoxy)pentane to 1,4-diiodobutane and 1,5-diiodopentane was over 90% [24]. The organic phase was analyzed by GC-MS [18]. THT was quantified as described previously and the method was validated for use with mouse plasma before measuring both Bu and THT [19, 20].
Kinetic parameters from in vivo studies were estimated using WinNonLin software (standard edition, version 2.0), while Microsoft Excel and SigmaPlot software (version 12.5, Systat software, Inc.) were utilized for in vitro kinetics.

CYP1A2 = molecular target: T1, CYP1A2 (Homo sapiens, UniProt P05177); test: THT disappearance with recombinant cDNA-expressed enzyme microsomes; type: in vitro ADME; settings: 25μM THT, 35pmol CYP/mL
T1 construct: purchased BD Biosciences; host or cells: baculovirus infected insect cells
T1 sequence (P05177 1-516): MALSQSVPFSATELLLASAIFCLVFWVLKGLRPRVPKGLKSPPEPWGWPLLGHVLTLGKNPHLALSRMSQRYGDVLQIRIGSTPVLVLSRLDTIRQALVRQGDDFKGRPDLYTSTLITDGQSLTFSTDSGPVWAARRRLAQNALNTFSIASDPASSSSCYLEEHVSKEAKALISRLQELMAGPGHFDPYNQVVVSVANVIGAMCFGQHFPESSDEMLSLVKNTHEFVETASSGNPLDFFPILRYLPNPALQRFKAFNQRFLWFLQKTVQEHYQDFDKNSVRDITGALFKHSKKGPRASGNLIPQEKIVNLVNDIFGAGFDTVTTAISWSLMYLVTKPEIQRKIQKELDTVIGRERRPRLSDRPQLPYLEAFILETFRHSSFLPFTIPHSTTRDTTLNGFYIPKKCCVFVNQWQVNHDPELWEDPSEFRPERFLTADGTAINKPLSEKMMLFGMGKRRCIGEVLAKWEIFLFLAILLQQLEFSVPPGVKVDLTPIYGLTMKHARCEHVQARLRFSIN
Description: To identify the enzymes involved in Bu metabolism, 11 microsomal batches (BD Biosciences, Stockholm, Sweden), each containing a separate cDNA-expressed enzyme, were incubated with 25μM THT. The microsomes contained FMO3, CYP1A1, CYP1A2, CYP2B6, CYP2C8, CYP2C9, CYP2C19, CYP2D6, CYP2E1, CYP3A4 or CYP4A11. Time curves (0, 5, 15, 30 and 60min) were performed at a concentration of 0.35mg protein /mL for FMO3 and 35pmol CYP/mL for the CYP enzymes. The recombinant enzymes were produced from human cDNA expressing each of them using baculovirus expression system. Baculovirus infected insect cells were used to prepare these microsomes.
as §1
To measure THT and the secondary metabolite, sulfolane, the reactions were terminated by adding dichloromethane. Samples (180μL) were added to 10μM nicotine (20μL, Merck, Hoherbrunn, Germany), used as an internal standard, before extraction. The matrix was extracted by liquid-liquid extraction with dichloromethane (equal volumes, 200μL) after 30 sec of high speed vortexing. After extraction and centrifugation at 16000 g for 10 min, the organic phase was transferred into GC-MS tubes. […] Samples (180μL) were added to 10 μM of 3-methylsulfolane (20μL, TCI, Tokyo, Japan), used as an internal standard. The matrix was lyophilized (< 1 mbar at 40°C under N2 stream) to dryness, the residue was dissolved in 10 μL water and 200 μL of ethyl acetate was added for extraction. Samples were vortexed for 30 sec at high speed and centrifuged at 16000 g for 10 min. The organic phase was transferred to GC-MS tubes.
as §2

C1CCSC1 [THT, tetrahydrothiophene]
THT concentrations versus Bu alone [1]: higher concentrations than with Bu alone | time at which THT was detected after the first dose of Bu [1]: 1 h | THT disappearance on incubation with HLM [2]: rapid THT disappearance | reduction of THT disappearance by CYP inhibition by carbon monoxide [2]: 9% | reduction of THT disappearance by inactivation of FMO3 (heat treatment) ([2]; within 60 min): 44% | THT concentrations versus THT only [3]: significantly (P<0.05, t-test) higher | THT concentrations versus Bu alone [4]: significantly (P<0.05, t-test) increased | v0 (CYP1A2): 1.24 nmol/min/mL | v0/CYP (CYP1A2): 0.04 nmol/min/pmol CYP
